US20140093513A1, “METHODS OF LOWERING PROPROTEIN CONVERSATE SUBTILISIN/KEXIN TYPE 9 (PCSK9)” (Catabasis Pharmaceuticals, Inc., priority 2012, published 2014)

Tests used:
PCSK9 = PCSK9 secretion assay in HepG2 cells (PCSK9 ELISA); type: cell-based
Procedure, shortened: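 HepG2 cells in serum-free DMEM with compound added in FBS (ethanol-matched) and incubated 16 hours, in triplicate. Secreted PCSK9 in supernatant measured by ELISA (A450), with AlamarBlue viability check. IC50 obtained from at least 6 concentrations.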

[1] = test system: Zucker fa/fa Rat model of Dyslipidemia; experiment: Plasma triglyceride level in the Zucker fa/fa rat model of dyslipidemia; type: in vivo; conditions: Zucker rats, po qd, I-8 at 10, 30, 100 and 300 mg/kg; niacin/EPA 100/200 mg/kg; day 4 fed blood sample, FIG. 3
Protocol: Male Zucker rats (HsdHlr: Zucker-Lepr̂fa) between 8-10 weeks of age were purchased from Harlan and maintained on Purina Rodent Diet (5001) for the duration of the study. Animals were randomized and assigned to treatment arms based on body weight and plasma triglyceride (TG) levels (n=8). Inclusion criteria for the study include body weight >300 grams and fed TG levels in plasma >800 mg/dL. Dosing will be initiated on day 1 and continue through day 5. Dosing will be daily (qd) by oral gavage (po) for all treatment arms (Compound I-8 was administered orally at 4 different doses, 10, 30, 100 and 300 mg/kg; in addition, a combination of niacin/EPA in a ratio of 100/200 mg/kg was also employed). Body weights will be measured for all rats on days 1 through 5. On day 4, a blood sample (fed) will be collected from each rat, processed for plasma and stored at −80° C. Plasma triglyceride level was determined from commercial kits using standard protocols. […] Because compound I-8 was able to lower fed plasma triglyceride, it is useful to treat dyslipidemia as well as other diseases such as type I hyperlipoproteinemia and type 5 hyperlipoproteinemia.

ApoE3Leiden mice = experiment: Plasma cholesterol and triglycerides in ApoE3Leiden mice on Western type diet, 2 and 4 weeks of treatment; type: in vivo; conditions: female APOE*3Leiden mice, WTD, I-8 0.75% w/w, atorvastatin 0.0015% w/w in diet
Protocol: The study was conducted using female APOE*3Leiden mice (groups of each n=10) and one untreated reference control group on chow (n=5). To induce dyslipidemia, a high cholesterol Western type diet containing 1% cholesterol, 15% cacao butter, 40.5% sucrose and 1% corn oil (WTD) was fed to the mice for a total experimental period of 20 weeks (of which 4 weeks are a run-in period).
The dyslipidemic mice were grouped on the basis of plasma cholesterol at t=0 assayed in 4 h fasting blood. Mice with low cholesterol after the run-in period were excluded so that homogenous experimental groups were obtained. A group of reference mice (n=5) remained on a chow diet during the complete study period (normolipidemic reference mice).
This mix was then added to the master mix (containing the rest of the ingredients) and mixed thoroughly. The diet was frozen to −20° C. On the subsequent day, the diet was broken into small pellets (approx 5 g per piece) and freeze dried, and stored in vacuum sealed bags (approx 500 g) at −20° C. until use. The diets were refreshed daily and unused diet was discarded.
1) Body weight at −4, 0, 2, 4 weeks 2) Food intake (g/day/mouse) at 0, 2, 4 weeks (per cage) 3) Plasma total cholesterol at −4, 0, 2, 4 weeks (individually) 4) Plasma triglycerides at −4, 0, 2, 4 weeks (individually) 5) Lipoprotein profiles at 0 (pool of all animals) and 4 weeks (cholesterol distribution over VLDL, LDL and HDL-sized particles, analysis on group level).
EDTA plasma was collected in weeks −4, 0, 2 and 4 weeks. Plasma cholesterol, plasma triglyceride levels and lipoprotein profileswere assayed immediately in fresh plasma.

ApoE*3 Leiden mice = experiment: Plasma lipids and liver weight of ApoE*3 Leiden mice on Western type diet, 16 weeks of treatment; type: in vivo; conditions: I-8 in WTD at 7.5 g/kg
Protocol: The same experimental design used in example 6 was used. Two treatment groups were used (n=15). The control animals were kept on a Western type diet (WTD) consisting of 1% cholesterol, 15% cacao butter, 40.5% sucrose, and 1% corn oil. For the treatment group, compound I-8 was administered in the above WTD at a ratio of 7.5 g/kg. Animals were maintained on the WTD or treatment group for 16 weeks. At the conclusion of the study, plasma cholesterol and triglyceride levels were recorded, as well as the weight of the liver. There was a significant decrease in plasma cholesterol, triglyceride levels as well as liver weight in the treatment group. After 16 weeks of treatment, the cholesterol level of the treatment group was 420 mg/dL, compared with a level of 750 mg/dL for the control group; the triglyceride level was 110 mg/dL, compared with a level of 160 mg/dL for the control group.

SMILES: CC/C=C\C/C=C\C/C=C\C/C=C\C/C=C\CCCC(=O)NCCNC(=O)c1cccnc1 [Compound I-8, N-(2-(5Z,8Z,11Z,14Z,17Z)-eicosa-5,8,11,14,17-pentaenamidoethyl)nicotinamide]
- PCSK9 levels in HepG2 cells incubated with atorvastatin (PCSK9; HepG2 cells incubated with 10 μM of atorvastatin along with the test article, FIG. 2): decrease PCSK9 levels in a dose response manner
- IC50 (PCSK9; HepG2 cells, 16 hours incubation, at least 6 concentrations): < 25 µM
- lowering of PCSK9 (PCSK9; HepG2 cells, at 25 and 50 μM, FIG. 1): significant lowering of PCSK9
- fed plasma triglyceride level [1]: dose dependent decrease
- plasma cholesterol at t=2 weeks (ApoE3Leiden mice; 2 weeks of treatment, FIG. 4): statistically significant reduction
- plasma cholesterol after 4 weeks of treatment (ApoE3Leiden mice; 4 weeks, FIG. 5): Comparable level of cholesterol reduction
- plasma triglyceride levels after 4 weeks of treatment (ApoE3Leiden mice; 4 weeks, FIG. 6): significant reduction
- liver weight (ApoE*3 Leiden mice; FIG. 7): statistically significant drop
- triglyceride level after 16 weeks of treatment (ApoE*3 Leiden mice; control group 160 mg/dL): 110 mg/dL
- cholesterol level after 16 weeks of treatment (ApoE*3 Leiden mice; control group 750 mg/dL): 420 mg/dL
